Results reported in PubChem BioAssay AID330 (DTP/NCI, 2004).
Several values for one entry are separate records, joined by “and”; a condition that tells them apart may be missing. Equal entries are not always repeated. Inconclusive results and toxic doses are left out. Rule for the calls: active = survival T/C of 150% or more; inactive = T/C below 125% in these data. Square brackets hold non-standard residues; d marks the D form. Peptide text beside a SMILES is read from it. Ac5c = NC1(C(=O)O)CCCC1

Test system: P388 leukemia ip, CD2F1 mice, survival T/C
Assay: NCI In Vivo Anticancer Drug Screen. Data for tumor model P388 Leukemia (intraperitoneal) in CD2F1 (CDF1) mice
Conditions: endpoint: median survival time, higher = longer survival
Outline: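 Mice carrying the transplanted tumor received test compound or vehicle. Survival was recorded in each group, and the value is the treated-group measurement divided by that of the vehicle-treated control group.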

[1] = dose: 50.0 mg/kg/injection, schedule: Q01DX005 (ip), vehicle: Klucel (hydroxypropylcellulose) (HPC)
[2] = dose: 100.0 mg/kg/injection, schedule: Q01DX005 (ip), vehicle: Klucel (hydroxypropylcellulose) (HPC)
[3] = dose: 200.0 mg/kg/injection, schedule: Q01DX005 (ip), vehicle: Klucel (hydroxypropylcellulose) (HPC)
[4] = dose: 50.0 mg/kg/injection, schedule: Q01DX009 (ip), vehicle: Klucel (hydroxypropylcellulose) (HPC)
[5] = dose: 100.0 mg/kg/injection, schedule: Q01DX009 (ip), vehicle: Klucel (hydroxypropylcellulose) (HPC)
[6] = dose: 200.0 mg/kg/injection, schedule: Q01DX009 (ip), vehicle: Klucel (hydroxypropylcellulose) (HPC)
[7] = dose: 50.0 mg/kg/injection, schedule: Q01DX009 (ip), vehicle: saline
[8] = dose: 100.0 mg/kg/injection, schedule: Q01DX009 (ip), vehicle: saline
[9] = dose: 60.0 mg/kg/injection, schedule: Q01DX005 (ip), vehicle: saline with Tween-80
[10] = dose: 120.0 mg/kg/injection, schedule: Q01DX005 (ip), vehicle: saline with Tween-80
[11] = dose: 240.0 mg/kg/injection, schedule: Q01DX005 (ip), vehicle: saline with Tween-80
[12] = dose: 50.0 mg/kg/injection, schedule: Q01DX005 (ip), vehicle: saline with Tween-80
[13] = dose: 100.0 mg/kg/injection, schedule: Q01DX005 (ip), vehicle: saline with Tween-80
[14] = dose: 200.0 mg/kg/injection, schedule: Q01DX005 (ip), vehicle: saline with Tween-80
[15] = dose: 25.0 mg/kg/injection, schedule: Q01DX009 (ip), vehicle: saline with Tween-80
[16] = dose: 50.0 mg/kg/injection, schedule: Q01DX009 (ip), vehicle: saline with Tween-80
[17] = dose: 100.0 mg/kg/injection, schedule: Q01DX009 (ip), vehicle: saline with Tween-80
[18] = dose: 200.0 mg/kg/injection, schedule: Q01DX009 (ip), vehicle: saline with Tween-80

Measured: T/C

CC1=CC(=O)C2(OC3OC(C)C(O)C(O)C3O)C=COC(OC3OC(CO)C(O)C(O)C3O)C12 (configuration not stated)
inactive: dose: 12.5 mg/kg/injection, schedule: Q01DX005 (ip), vehicle: Klucel (hydroxypropylcellulose) (HPC) 98 % of control | dose: 25.0 mg/kg/injection, schedule: Q01DX005 (ip), vehicle: Klucel (hydroxypropylcellulose) (HPC) 95 % of control | [1] 95 % of control | [2] 95 % of control | [3] 95 % of control

COc1ccc2c(c1OC)Oc1c(OC)ccc3c1C(C2)N(C)C[C@@H]3O (some centres not stated)
inactive: dose: 5.75 mg/kg/injection, schedule: Q01DX005 (ip), vehicle: Klucel (hydroxypropylcellulose) (HPC) 103 % of control | dose: 11.5 mg/kg/injection, schedule: Q01DX005 (ip), vehicle: Klucel (hydroxypropylcellulose) (HPC) 109 % of control | dose: 23.0 mg/kg/injection, schedule: Q01DX005 (ip), vehicle: Klucel (hydroxypropylcellulose) (HPC) 100 % of control | dose: 46.0 mg/kg/injection, schedule: Q01DX005 (ip), vehicle: Klucel (hydroxypropylcellulose) (HPC) 99 % of control

CC1(C)C/C(=C\c2ccc([N+](=O)[O-])cc2)C(=O)c2ccccc21
inactive: dose: 25.0 mg/kg/injection, schedule: Q01DX009 (ip), vehicle: Klucel (hydroxypropylcellulose) (HPC) 99 % of control | [4] 100 % of control | [5] 99 % of control | [6] 98 % of control | dose: 400.0 mg/kg/injection, schedule: Q01DX009 (ip), vehicle: Klucel (hydroxypropylcellulose) (HPC) 88 % of control

NCC(=O)NC1(C(=O)O)CCCC1 (H-Gly-[Ac5c]-OH)
inactive: dose: 25.0 mg/kg/injection, schedule: Q01DX009 (ip), vehicle: saline 118 % of control | [7] 118 % of control | [8] 122 % of control | dose: 100.0 mg/kg/injection, schedule: Q04DX003 (ip), vehicle: saline 95 % of control | dose: 200.0 mg/kg/injection, schedule: Q01DX009 (ip), vehicle: saline 105 % of control | dose: 200.0 mg/kg/injection, schedule: Q04DX003 (ip), vehicle: saline 100 % of control | dose: 400.0 mg/kg/injection, schedule: Q01DX009 (ip), vehicle: saline 93 % of control | dose: 400.0 mg/kg/injection, schedule: Q04DX003 (ip), vehicle: saline 108 % of control

O=C1CCC(Cc2ccccc2)CN1 (configuration not stated)
inactive: [9] 97 % of control | [10] 101 % of control | [11] 97 % of control

Cc1nnsc1-c1nnc2sc(C(F)(F)F)nn12
inactive: dose: 50.0 mg/kg/injection, schedule: Q04DX002 (ip), vehicle: Klucel (hydroxypropylcellulose) (HPC) 100 % of control | dose: 100.0 mg/kg/injection, schedule: Q04DX002 (ip), vehicle: Klucel (hydroxypropylcellulose) (HPC) 100 % of control | dose: 200.0 mg/kg/injection, schedule: Q04DX002 (ip), vehicle: Klucel (hydroxypropylcellulose) (HPC) 100 % of control

OC1OCC(COc2ccc(Cl)cc2)OC1O (configuration not stated)
inactive: [9] 108 % of control and 118 % of control | [10] 111 % of control | [11] 123 % of control

C[N+]1(C)CC=CCC1c1ccccc1 (configuration not stated)
inactive: dose: 6.25 mg/kg/injection, schedule: Q01DX005 (ip), vehicle: saline 104 % of control | dose: 12.5 mg/kg/injection, schedule: Q01DX005 (ip), vehicle: saline 105 % of control | dose: 25.0 mg/kg/injection, schedule: Q01DX005 (ip), vehicle: saline 98 % of control

CCS/C(C#N)=C(/C)c1ccccc1
inactive: [12] 101 % of control | [13] 106 % of control | [14] 108 % of control

COc1c(Cl)cc(Cl)cc1C(=O)NO
inactive: [12] 97 % of control | [13] 106 % of control | [14] 112 % of control

CCSC1(SCC)C(=O)OC2=C(CCCCC2)C1N(C)c1ccccc1 (configuration not stated)
inactive: dose: 12.5 mg/kg/injection, schedule: Q01DX009 (ip), vehicle: saline with Tween-80 93 % of control | [15] 99 % of control | [16] 99 % of control

CCOC(=O)C1(CN2C(=O)c3ccccc3C2=O)C(=O)Nc2ccccc21 (configuration not stated)
inactive: [4] 87 % of control | [5] 87 % of control | [6] 87 % of control

NC(=O)c1cncn1C1OCC(O)C(O)C1O (configuration not stated)
inactive: dose: 60.0 mg/kg/injection, schedule: Q01DX005 (ip), vehicle: saline 96 % of control | dose: 120.0 mg/kg/injection, schedule: Q01DX005 (ip), vehicle: saline 94 % of control | dose: 240.0 mg/kg/injection, schedule: Q01DX005 (ip), vehicle: saline 91 % of control

O=c1ccocc1OC1OC(CO)C(O)C(O)C1O (configuration not stated)
inactive: dose: 5.75 mg/kg/injection, schedule: Q01DX005 (ip), vehicle: saline 95 % of control | dose: 11.5 mg/kg/injection, schedule: Q01DX005 (ip), vehicle: saline 113 % of control | dose: 23.0 mg/kg/injection, schedule: Q01DX005 (ip), vehicle: saline 106 % of control | dose: 46.0 mg/kg/injection, schedule: Q01DX005 (ip), vehicle: saline 105 % of control

NC(CC(=O)O)C(F)(F)F (configuration not stated)
inactive: [9] 99 % of control | [10] 100 % of control | [11] 102 % of control

O=c1[nH]cnc2cc3cn[nH]c3cc12
inactive: [12] 91 % of control | [13] 96 % of control | [14] 95 % of control

O=C1c2ccccc2C(=O)c2c(NC(=O)c3ccc4c5c(ncnc35)-c3ccccc3C4=O)cccc21
inactive: [4] 95 % of control | [5] 100 % of control | [6] 94 % of control

C=CCN(CCNc1cccc2ccccc12)C1CCCCC1
inactive: [1] 92 % of control | [2] 100 % of control | [3] 104 % of control

OCCOCCN1CCN(C(c2ccccc2)c2ccccc2)CC1
inactive: [7] 103 % of control | [8] 103 % of control

C[C@@H]1C[C@H](C)S(=O)[C@H](C)S1 (some centres not stated)
inactive: dose: 100.0 mg/kg/injection, schedule: Q04DX002 (ip), vehicle: saline 101 % of control | dose: 200.0 mg/kg/injection, schedule: Q04DX002 (ip), vehicle: saline 102 % of control | dose: 400.0 mg/kg/injection, schedule: Q04DX002 (ip), vehicle: saline 100 % of control

CCCCCN(CCCCC)CCCCC
inactive: [15] 86 % of control | [16] 98 % of control | [17] 101 % of control | [18] 88 % of control

Clc1ccc(C2N(Cc3ccccc3)CCC3CCCCN32)cc1Cl (configuration not stated)
inactive: [16] 87 % of control | [17] 91 % of control

Cc1ccc(-n2cnc3c(N)nc(N)nc32)cc1
inactive: dose: 1.56 mg/kg/injection, schedule: Q01DX005 (ip), vehicle: saline with Tween-80 100 % of control | dose: 3.13 mg/kg/injection, schedule: Q01DX005 (ip), vehicle: saline with Tween-80 108 % of control | dose: 6.25 mg/kg/injection, schedule: Q01DX005 (ip), vehicle: saline with Tween-80 108 % of control and 112 % of control | dose: 12.5 mg/kg/injection, schedule: Q01DX005 (ip), vehicle: saline with Tween-80 115 % of control

COc1ccc(C23OCN(c4ccccc4)C2(c2ccc(OC)cc2)c2ccccc2N3C)cc1 (configuration not stated)
inactive: [9] 103 % of control | [10] 100 % of control | [11] 94 % of control

COC(=O)C1CC2CCCCC2CC1OC(C)=O (configuration not stated)
inactive: [15] 96 % of control | [16] 101 % of control and 111 % of control | [17] 106 % of control and 112 % of control and 121 % of control | [18] 99 % of control and 110 % of control and 121 % of control
